What follows are molecules tested against T1, BTG-3 (Streptomyces cinnamoneus, UniProt Q8GR90) (assay: Influence of metal ions on activity). Conditions: metal ion 1 mM; None = 100; 30 min.
T1 construct: Ca2+-independent; made as pre-pro-protein
T1 sequence (Q8GR90 86-416): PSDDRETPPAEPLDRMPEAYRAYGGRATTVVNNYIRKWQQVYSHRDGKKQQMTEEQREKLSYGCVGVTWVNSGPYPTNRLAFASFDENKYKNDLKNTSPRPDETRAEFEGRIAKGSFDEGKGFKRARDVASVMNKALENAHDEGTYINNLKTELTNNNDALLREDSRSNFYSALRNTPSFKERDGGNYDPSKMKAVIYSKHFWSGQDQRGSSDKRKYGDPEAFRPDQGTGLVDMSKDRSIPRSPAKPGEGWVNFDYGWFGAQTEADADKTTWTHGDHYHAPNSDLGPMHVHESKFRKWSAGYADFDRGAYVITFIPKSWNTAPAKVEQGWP
Type: biochemical
Procedure: (§1) Measurement of the activity of BTGase is carried out by performing a reaction using benzyloxycarbonyl-L-glutaminyl glycine and hydroxylamine as substrates in the absence of Ca^2+, forming an iron complex with the resulting hydroxamic acid in the presence of trichloroacetic acid, measuring absorption at 525 nm and determining the amount of hydroxamic acid by a calibration curve to calculate the activity. The BTGase activity is measured by the method described below, unless otherwise indicated.
(§2) To 0.05 ml of an enzyme solution is added 0.5 ml of Reagent A and they are mixed with each other. After reacting at 37° C. for 30 minutes, Reagent B is added thereto to discontinue the reaction and form an Fe complex. Thereafter, absorbance is measured at 525 nm. […] Separately, a calibration curve is prepared using L-glutamic acid γ-monohydroxamio acid instead of the enzyme solution, and the amount of hydroxamic acid produced is determined by the difference in absorbance described above. An enzyme activity which produces 1 μmol of hydroxamic acid per 1 minute is defined as 1 unit.
For `[Cl][Fe]([Cl])[Cl]` [FeCl3], the “BTG-3 (%) activity with metal ion” value was 106%.
For `[Cl-].[Na+]` [NaCl], the “BTG-3 (%) activity with metal ion” value was 101%.
With `[Cl-].[Cl-].[Sr+2]` [SrCl2] the “BTG-3 (%) activity with metal ion” value was 100%.
In the case of `[Ba+2].[Cl-].[Cl-]` [BaCl2], the “BTG-3 (%) activity with metal ion” value was 105%.
In the case of `[Cl-].[Cl-].[Mg+2]` [MgCl2], the “BTG-3 (%) activity with metal ion” value was 103%.
For `[Cl-].[Cl-].[Co+2]` [CoCl2], the “BTG-3 (%) activity with metal ion” value was 103%.
With `[Cl][Mn][Cl]` [MnCl2] the “BTG-3 (%) activity with metal ion” value was 97%.
In the case of `CC(=O)[O-].CC(=O)[O-].[Pb+2]` [Pb(CH3 COO)2], the “BTG-3 (%) activity with metal ion” value was 100%.
With `[Cl-].[K+]` [KCl] the “BTG-3 (%) activity with metal ion” value was 105%.

These molecules were tested against T2, BTG-1 (Streptomyces mobaraensis, UniProt P81453) (assay: Influence of metal ions on activity). Conditions: metal ion 1 mM; None = 100; 30 min.
T2 construct: BTGase is dissolved in the culture solution and can be harvested from the culture filtrate; endogenous in cells; host or cells: Streptoverticillium mobaraense IFO 13819 (natural producer; purified from culture filtrate)
T2 sequence (P81453 77-407): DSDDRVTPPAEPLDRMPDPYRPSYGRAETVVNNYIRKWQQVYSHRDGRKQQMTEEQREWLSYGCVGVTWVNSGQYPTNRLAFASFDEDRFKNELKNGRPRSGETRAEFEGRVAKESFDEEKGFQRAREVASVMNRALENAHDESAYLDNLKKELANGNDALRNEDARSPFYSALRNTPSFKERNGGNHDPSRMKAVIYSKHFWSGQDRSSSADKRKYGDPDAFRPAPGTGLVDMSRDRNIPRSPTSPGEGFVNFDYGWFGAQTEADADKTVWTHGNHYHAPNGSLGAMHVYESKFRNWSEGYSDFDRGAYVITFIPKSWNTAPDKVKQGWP
Type: biochemical, Streptoverticillium mobaraense IFO 13819
Procedure: as §1, §2
In the case of `[Cl][Fe]([Cl])[Cl]` [FeCl3], the “BTG-1 (%) activity with metal ion” value was 96%.
With `[Cl-].[Na+]` [NaCl] the “BTG-1 (%) activity with metal ion” value was 99%.
In the case of `[Cl-].[Cl-].[Sr+2]` [SrCl2], the “BTG-1 (%) activity with metal ion” value was 100%.
For `[Ba+2].[Cl-].[Cl-]` [BaCl2], the “BTG-1 (%) activity with metal ion” value was 101%.
In the case of `[Cl-].[Cl-].[Co+2]` [CoCl2], the “BTG-1 (%) activity with metal ion” value was 103%.
`CC(=O)[O-].CC(=O)[O-].[Pb+2]` [Pb(CH3 COO)2] was tested, and the “BTG-1 (%) activity with metal ion” value was 97%.
In the case of `[Cl-].[K+]` [KCl], the “BTG-1 (%) activity with metal ion” value was 96%.

These molecules were tested against T3, BTG-2 (Streptomyces griseocarneus, UniProt A0ABX7RSJ1) (assay: not given). Conditions: metal ion 1 mM; None = 100; 30 min.
T3 construct: Ca2+-independent; made as pre-pro-protein
Type: biochemical, Streptoverticillium griseocarneum IFO 12776
Procedure: as §1, §2
For `[Cl][Fe]([Cl])[Cl]` [FeCl3], the “BTG-2 (%) activity with metal ion” value was 104%.
In the case of `[Cl-].[Na+]` [NaCl], the “BTG-2 (%) activity with metal ion” value was 102%.
In the case of `[Cl-].[Cl-].[Sr+2]` [SrCl2], the “BTG-2 (%) activity with metal ion” value was 101%.
`[Cl][Ni][Cl]` [NiCl2] was tested, and the “BTG-2 (%) activity with metal ion” value was 100%.
With `[Ba+2].[Cl-].[Cl-]` [BaCl2] the “BTG-2 (%) activity with metal ion” value was 99%.
For `[Cl-].[Cl-].[Mg+2]` [MgCl2], the “BTG-2 (%) activity with metal ion” value was 104%.
`[Cl-].[Cl-].[Co+2]` [CoCl2] was tested, and the “BTG-2 (%) activity with metal ion” value was 103%.
In the case of `[Cl][Mn][Cl]` [MnCl2], the “BTG-2 (%) activity with metal ion” value was 97%.
With `CC(=O)[O-].CC(=O)[O-].[Pb+2]` [Pb(CH3 COO)2] the “BTG-2 (%) activity with metal ion” value was 97%.
For `[Cl-].[K+]` [KCl], the “BTG-2 (%) activity with metal ion” value was 99%.
